One data set concerns HSV-2 strain G. Put plainly: HSV-2 infection mouse model (vaginal protection). It counts as in vivo. The following applies: 10 ID50. The method, then:
(§1) Female 6-8 week-old CF-1 mice were purchased from Harlan (Indianapolis, Ind.). Mice were housed in a reverse light cycle facility (12 h light/12 h dark), to enable selection of mice in a naturally cycling estrus state. The mouse vagina during the estrus phase of the estrous cycle is most similar to the human vagina. Barrier properties to nanoparticles in estrus phase mouse mucus closely mimic the barrier properties to nanoparticles in human CVM. Thus, mice in estrus phase, as determined visually by the appearance of the vaginal introitus, were used for all distribution and retention studies. Mice used for vaginal HSV-2 protection and susceptibility studies were given a subcutaneous flank injection of 2.5 mg Depo-Provera (Pharmacia & Upjohn Company, New York, N.Y.) in 100 μL phosphate-buffered saline (PBS) 7 days prior to experiments. This treatment is commonly used to increase susceptibility to vaginal HSV-2 infection. All experimental protocols were approved by the Johns Hopkins Animal Care and Use Committee.
Mice received 20 μl of 10 mg/ml acyclovir monophosphate dissolved in either PBS (isoosmolar) or ultrapure water (hypoosmolar) immediately before use. […] Mice were dosed either 1 min or 60 min prior to viral inoculum. Mice were then challenged with 10 μl of inoculum containing HSV-2 strain G (ATCC #VR-724, 2.8×10^7 TCID50 per ml). For protection studies, HSV-2 was diluted 10-fold with Bartel's medium to deliver 10 ID50, a dose that typically infects 85-90% of control mice. For osmotic-induced susceptibility tests, virus was diluted 10-fold with Bartel's medium and further diluted 10-fold in either Bartel's medium (isoosmolar) or deionized water (hypoosmolar) to the ID50, a dose that infects half of the mice. Mice were assessed for infection three days later after inoculation by culturing a PBS vaginal lavage on human foreskin fibroblasts (Diagnostic Hybrids, MRHF Lot #440318W). In this model, input (challenge) virus is no longer detectable in lavage fluid if it is collected more than 12 h after the challenge.
The Wilcoxon rank-sum test was used to compare data sets. This test is non-parametric, and more appropriate in situations where a Gaussian distribution cannot be assumed. For HSV-2 infection studies, statistical significance was determined using Fisher's exact test, two-tailed distribution.

Data set [1] is described as follows: Drug distribution in the vagina (Doxorubicin surface coverage on flattened tissue). As to conditions: for vaginal tissue area covered: non-ambulatory (supine for 1 h). It counts as in vivo, mouse. The method, then:
as §1
Doxorubicin (NetQem, Durham, N.C.) was dissolved at 1 mg/ml concentration in either PBS (isoosmolar with respect to blood) or ultrapure water (hypoosmolar). For 1 liter of 1×PBS, 800 ml of distilled water; 8 g of NaCl; 0.2 g of KCl; 1.44 g of Na2HPO4; 0.24 g of KH2PO4: adjust the pH to 7.4 with HCl, add distilled water to a total volume of 1 liter.
Doxorubicin was vaginally administered both isoosmotically and hypoosmotically to mice in two different conditions. The “non-ambulatory” group was anesthetized with an intraperitoneal injection of Avertin working solution (prepared according to Johns Hopkins ACUC guidelines) and remained supine for 1 hr prior to tissue collection. […] The images were ‘thresholded’ to draw region of interest boundaries around the fluorescent signal, and then the area covered quantified using ImageJ software. An average percentage coverage was determined for each mouse, and these values were averaged over groups of n=5 mice.

A short description of data set [2]: Drug retention in the vagina (Doxorubicin fluorescence of whole cervicovaginal tract). Type of data set: in vivo, mouse. As to conditions: after 10 min supine; normalized to isoosmolar group. How it is done:
Female 6-8 week-old CF-1 mice were purchased from Harlan (Indianapolis, Ind.). Mice were housed in a reverse light cycle facility (12 h light/12 h dark), to enable selection of mice in a naturally cycling estrus state. The mouse vagina during the estrus phase of the estrous cycle is most similar to the human vagina. Barrier properties to nanoparticles in estrus phase mouse mucus closely mimic the barrier properties to nanoparticles in human CVM. Thus, mice in estrus phase, as determined visually by the appearance of the vaginal introitus, were used for all distribution and retention studies. […]
Doxorubicin vas dissolved at a concentration 1 mg/ml in phosphate buffeted saline (“PBS”) (isoosmolar with respect to blood) or ultrapure water (hypoosmolar). […] Fluorescence images of the tissues were obtained using the Xenogen IVIS Spectrum imaging device (Caliper Life Sciences). To account for potential differences in Doxorubicin solution fluorescence, vials of both isoosmolar and hypoosmolar Doxorubicin solutions were included in the image. The ratio of the intensity of the two solutions was used to normalize the tissue fluorescence for each group. Quantification of fluorescent counts per unit area was calculated using the Xenogen Living Image 2.5 software. […]

Data set [3] can be described thus: Vaginal epithelial distribution of FITC-containing biodegradable MPP versus FITC in HEC gel after 24 h. It counts as in vivo, mouse. As to conditions: MPP in UP water, FITC in isoosmolar HEC gel. How it is done: Biodegradable MPP containing FITC intravaginally was administered in UP water. As a comparison, FITC in the standard isoosmolar placebo gel, hydroxyethylcellulose (HEC), was administered. After 24 h, the vaginal tissue was excised and flattened between two glass slides.

acyclovir monophosphate [ACVp]: the mice infected in the data set with HSV-2 strain G (1% ACVp 1 min before virus, administered hypotonically) was found to be 31%; with HSV-2 strain G (1% ACVp 1 min before virus, administered isotonically) it was 49%; in the data set on HSV-2 strain G (1% ACVp 1 h before virus, administered hypotonically) it was 73%; in the data set with HSV-2 strain G (1% ACVp 1 h before virus, administered isotonically), 45%.
As to `COc1cccc2c1C(=O)c1c(O)c3c(c(O)c1C2=O)C[C@@](O)(C(=O)CO)C[C@@H]3O[C@H]1C[C@H](N)[C@H](O)[C@H](C)O1` [Doxorubicin], the “vaginal surface area covered” value in data set [1] (ambulatory for 10 mins, isoosmolar (isotonic) solution) is reported as 25%. Besides, the “vaginal tissue area covered” value is listed as 88% in data set [1] (hypoosmolar solution (ultrapure water)) and 15% in data set [1] (isoosmolar solution (PBS)). The “relative fluorescent signal in reproductive tract, hypoosmolar versus isoosmolar solution” value in data set [2] was “half”.
As for FITC, in data set [3], the “epithelial distribution on flattened vaginal tissue” value is given as “sparsely distributed”.

The record behind these values is patent US9629813B2, “Nanoparticle formulations with enhanced mucosal penetration” (The Johns Hopkins University, priority 2012, dated 2017).
